What was measured:
Lipophilicity (logP) = assay type: physicochemical
α (avr-14b) GluClRs = α (avr-14b) GluClRs (Haemonchus contortus, UniProt O46124); test: Two-electrode voltage clamp in oocytes, α GluClRs; assay type: cell-based, H. contortus
Description: (§1) cDNAs encoding the α (avr-14b) (pcDNA 3.1+) or β (pUNIV) GluClR subunits of H. contortus were nuclear injected into oocytes (NASCO, WI USA) or transfected into HEK293AD cells (CellBank Australia) using a calcium phosphate-DNA co-precipitate method. Synapse formation between neurons and HEK293 cells was promoted by co-transfecting neuroligin 2A or 1B and the cDNA encoding CD4 surface antigen was also added to the transfection mixture so as to identify transfected cells. The oocytes and HEK cells were used for experiments 2–3 days after the introduction of the cDNAs. All experiments were done at room temperature (22 ± 1°C).
(§2) Xenopus laevis oocytes were harvested by surgical incision. The oocytes were then defolliculated with 1.5 mg/ml collagenase for 2 hours. Free oocytes were rinsed with calcium-free OR-2 solution containing (in mM) 82.5 NaCl, 2 KCl, 1 MgCl2, 5 HEPES, pH 7.4 and mature stage V or VI oocytes were isolated for experiments. The DNAs coding for α and β subunits were nuclear injected into the oocytes using a Nanoliter 2000 microinjector (WPI Inc) at a ratio of (α:β), 1:0, 0:1, 1:1 and 1:50. The total amount of injected DNA in all combinations was 400 ng ml^−1, including the 1:50 (α:β) combination (8 ng of DNA encoding the α and 392 ng of DNA encoding β subunits). Injected oocytes were incubated in ND96 storage solution (in mM) 96 NaCl, 2 KCl, 1 MgCl2.6H2O, 1.8 CaCl2, 5 HEPES, 50 μg ml^−1 gentamicin, 2.5 sodium pyruvate, 0.5 theophylline, pH 7.4 at 16°C for 2–3 days before experiment.
(§3) For the two-electrode voltage clamp recordings, each oocyte was secured in a cell bath that was continually perfused with ND96 recording solution (ND96 storage solution without pyruvate, theophylline and gentamicin). […] The two microelectrodes contained 3 M KCl and had resistances of 0.2–2 MΩ. Recordings were done using Clampex 10.2 software (Molecular Devices) at a clamped voltage of −40 mV. Currents were low-pass filtered at 200 Hz, sampled at 2 kHz using a Gene Clamp 500B amplifier and digitised by a Digidata 1440A interface. The IVM (IVM B1a) concentration-response experiments were standardised by using an application protocol that consisted of applying increasing concentrations of IVM for, respectively, 3 min, 3 min, 3 min, 2 min, 1 min, 1 min and 0.5 min.
(§4) Group data were analysed in SigmaPlot 13.0 using one-way ANOVAs, where p < 0.05 was taken as the significance threshold and expressed as mean ± SEM. Tests for normally distributed data are built into the SigmaPlot software. Confocal images were captured and analysed with Zen 2012 SP2 (Zeiss) software. Oocyte concentration-response data were fit to a Hill equation to obtain an EC50 and Hill co-efficient for each oocyte recording. These parameters were then averaged across multiple oocyte experiments of the same type. Single channel recordings were analysed in QuB software. […] The selected critical times eliminated periods of receptor desensitisation while retaining singe receptor active periods. Mean active period duration and intra-activation open probability was estimated from each patch. Group means were obtained by averaging across multiple patches for each recording condition.

[1] = tested on: Untransfected HEK293 cells; test: Membrane partitioning, time-lapse fluorescence
Description: Two types of experiments were conducted with IVM-bdpy. The first was aimed at monitoring the time-course of membrane accumulation. Untransfected HEK293 cells were incubated in extracellular solution containing 500 nM IVM-bdpy and time-lapse images were taken over a period of 30 min (Fig 8A). The change in total membrane fluorescence averaged from 5 repeat experiments was then plotted against time and fitted to a standard exponential function (Fig 8B). In a control experiment, the corresponding accumulation rate was also determined for bdpy. To obtain the net membrane partitioning time-course for IVM-1, the data for the bdpy alone was subtracted from the data obtained for IVM-bdpy (Fig 8B). The time constants for the three plots were 6.5 min for the IVM-bdpy, 8.2 min for the bdpy fluorophore and 6.0 min for IVM-1. As the lipophilic properties of IVM and IVM-1 are similar (logPs of 5.4 and 5.1, respectively), we infer this analysis quantitatively reflects the membrane partitioning properties of IVM. […] It should be noted, however, that the IVM-bdpy experiment was done using a 100-fold higher concentration of drug in un-transfected cells and represents passive membrane accumulation, whereas the current plateau involved IVM binding to and activating receptors.
Membrane partitioning and FRAP experiments were performed on an LSM 710 inverted 2-photon confocal microscope equipped with a 40X water immersion objective lens (1.2 NA/280 μM WD/0.208 μM/pixel and a GFP/Alexa 488 filter set. Untransfected HEK293 cells at a confluency of 50–75% were plated onto 35-mm glass bottom dishes one day prior to experiments. The IVM-bdpy fluorophore was dissolved in 100% DMSO and stored at ‐20°C at a concentration of 24 mM.
A Mai Tai eHP 2-photon laser/760-1040 nm was used as an excitation source (power at 920 nm) for the FRAP experiments. The laser and bleaching power were set to 7% and 75% respectively. Membrane partitioning images were taken for 35 min at 0.5 Hz after replacing the cell medium (extracellular solution) with one containing the IVM-bdpy probe at a concentration of 500 nM. FRAP images were taken at a frequency of 0.5 Hz for 10 min after a 30 min equilibration period in 500 nM IVM-bdpy.

αβ (1:50) GluClRs = αβ (1:50) GluClRs (Haemonchus contortus, UniProt O46124+P91730); test: Two-electrode voltage clamp in oocytes, αβ (1:50) GluClRs; assay type: cell-based, H. contortus
Sequence of αβ (1:50) GluClRs (O46124 entry or part of it): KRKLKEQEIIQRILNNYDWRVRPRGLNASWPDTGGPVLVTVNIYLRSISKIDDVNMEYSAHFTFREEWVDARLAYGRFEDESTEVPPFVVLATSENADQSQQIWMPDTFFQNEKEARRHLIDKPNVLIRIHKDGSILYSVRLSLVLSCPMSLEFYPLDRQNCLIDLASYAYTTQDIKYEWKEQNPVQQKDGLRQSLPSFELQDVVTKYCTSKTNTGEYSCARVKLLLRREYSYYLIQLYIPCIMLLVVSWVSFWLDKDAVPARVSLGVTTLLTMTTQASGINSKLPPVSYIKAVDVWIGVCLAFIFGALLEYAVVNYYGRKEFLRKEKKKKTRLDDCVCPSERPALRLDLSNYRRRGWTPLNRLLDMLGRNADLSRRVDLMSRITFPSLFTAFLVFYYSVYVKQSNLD
Sequence of αβ (1:50) GluClRs (P91730 19-432): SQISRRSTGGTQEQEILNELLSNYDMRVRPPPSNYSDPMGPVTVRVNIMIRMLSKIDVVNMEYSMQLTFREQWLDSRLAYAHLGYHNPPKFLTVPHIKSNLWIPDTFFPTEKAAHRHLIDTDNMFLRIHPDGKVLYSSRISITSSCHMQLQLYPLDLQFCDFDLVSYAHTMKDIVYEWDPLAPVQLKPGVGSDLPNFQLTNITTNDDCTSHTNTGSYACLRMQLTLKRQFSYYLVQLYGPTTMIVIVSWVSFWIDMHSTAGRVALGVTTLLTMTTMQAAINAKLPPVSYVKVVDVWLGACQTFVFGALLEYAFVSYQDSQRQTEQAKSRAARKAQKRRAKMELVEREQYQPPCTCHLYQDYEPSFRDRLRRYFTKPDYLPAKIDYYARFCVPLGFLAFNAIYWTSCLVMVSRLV
Description: as §1, §2, §3, §4

β GluClRs [2] = target: T1, β GluClRs (Haemonchus contortus, UniProt P91730); test: Two-electrode voltage clamp in oocytes, β GluClRs; assay type: cell-based, H. contortus; conditions: glutamate-gated current, oocytes
T1 sequence (P91730 19-432): as above
Description: as §1
Xenopus laevis oocytes were harvested by surgical incision. The oocytes were then defolliculated with 1.5 mg/ml collagenase for 2 hours. Free oocytes were rinsed with calcium-free OR-2 solution containing (in mM) 82.5 NaCl, 2 KCl, 1 MgCl2, 5 HEPES, pH 7.4 and mature stage V or VI oocytes were isolated for experiments. The DNAs coding for α and β subunits were nuclear injected into the oocytes using a Nanoliter 2000 microinjector (WPI Inc) at a ratio of (α:β), 1:0, 0:1, 1:1 and 1:50. […]
Group data were analysed in SigmaPlot 13.0 using one-way ANOVAs, where p < 0.05 was taken as the significance threshold and expressed as mean ± SEM. […] Confocal images were captured and analysed with Zen 2012 SP2 (Zeiss) software. […] Single channel recordings were analysed in QuB software. […]

β GluClRs [3] = target: T1, β GluClRs; test: Single channel recording, outside-out patches, β GluClRs; assay type: cell-based, H. contortus
From the text: (§5) To explore whether a similar mechanism applies to β-containing GluClRs, we recorded single receptor currents in excised patches from cells transfected with either the α and β subunits (1:1) or the β subunit alone. […] By contrast, patches from cells transfected with the β subunit alone invariably opened to an amplitude of 0.4 pA (Fig 6C). Amplitude histograms confirmed two amplitude levels for αβ GluClRs and a single amplitude for the β GluClRs (Fig 6D). […] We infer that the αβ GluClRs that open to 0.7 pA likely contain a greater proportion of β subunits. This is consistent with β GluClRs having the smallest amplitude and α GluClRs having the greatest amplitude (1.8 pA) under similar recording conditions. The calculated conductance values for the corresponding amplitudes for αβ GluClRs was 15.2 pS and 8.9 pS and for the β GluClRs was 5.1 pS.
(§6) Single-channel currents were recorded from outside-out excised patches at a clamped potential of −70 mV. The single channel conductance was calculated by dividing the mean current by the net driving force at a clamped potential of ‐70 mV, after accounting for reversal and liquid junction potentials. Excised patches were continuously perfused via a gravity-fed double-barrelled glass tube, which contained extracellular bath solution containing (in mM), 140 NaCl, 5 KCl, 1 MgCl2, 2 CaCl2, 10 HEPES, and 10 D-glucose and titrated to pH 7.4. Glutamate and IVM were dissolved in this extracellular solution. Recording electrodes were pulled from borosilicate glass (G150F-3; Warner Instruments), coated with a silicone elastomer (Sylgard-184; Dow Corning) and heat-polished to a final tip resistance of 4–15 MΩ when filled with an intracellular solution containing (in mM) 145 CsCl, 2 MgCl2, 2 CaCl2, 10 HEPES, and 5 EGTA, pH 7.4. […] A 10 mM stock of IVM (Sigma-Aldrich) was dissolved in 100% DMSO and kept frozen at ‐20°C. Fresh working stocks of IVM at 5 nM were prepared by dissolving the appropriate quantity directly in extracellular solution. 100% DMSO when dissolved in extracellular solution alone at the same concentration as was present in working solutions containing 5 nM IVM had no effect on patches excised from cells transfected with GluClRs or from untransfected cells.
(§7) Currents were recorded using an Axopatch 200B amplifier (Molecular Devices), filtered at 5 kHz and digitized at 20 kHz using Clampex (pClamp 10 suite, Molecular Devices) via a Digidata 1440A digitizer.
(§8) Group data were analysed in SigmaPlot 13.0 using one-way ANOVAs, where p < 0.05 was taken as the significance threshold and expressed as mean ± SEM. Tests for normally distributed data are built into the SigmaPlot software. Confocal images were captured and analysed with Zen 2012 SP2 (Zeiss) software. Oocyte concentration-response data were fit to a Hill equation to obtain an EC50 and Hill co-efficient for each oocyte recording. These parameters were then averaged across multiple oocyte experiments of the same type. Single channel recordings were analysed in QuB software. […] Patches yielded between 30–250 individual active periods. […] The selected critical times eliminated periods of receptor desensitisation while retaining singe receptor active periods. Mean active period duration and intra-activation open probability was estimated from each patch. Group means were obtained by averaging across multiple patches for each recording condition.

αβ (1:1) GluClRs [4] = target: T2, αβ (1:1) GluClRs (Haemonchus contortus, UniProt O46124+P91730); test: Two-electrode voltage clamp in oocytes, αβ (1:1) GluClRs; assay type: cell-based, H. contortus; conditions: glutamate-gated current, oocytes, 1:1
T2 sequence (P91730 19-432): as above
T2 sequence (O46124 entry or part of it): as the sequence (O46124 entry or part of it) above
Description: as §1, §2, §3
Group data were analysed in SigmaPlot 13.0 using one-way ANOVAs, where p < 0.05 was taken as the significance threshold and expressed as mean ± SEM. Tests for normally distributed data are built into the SigmaPlot software. Confocal images were captured and analysed with Zen 2012 SP2 (Zeiss) software. Oocyte concentration-response data were fit to a Hill equation to obtain an EC50 and Hill co-efficient for each oocyte recording. […] Single channel recordings were analysed in QuB software. […]

αβ (1:1) GluClRs [5] = target: T2, αβ (1:1) GluClRs; test: Single channel recording, outside-out patches, αβ (1:1) GluClRs; assay type: cell-based, H. contortus; conditions: for mean active period duration: −70 mV
From the text: as §5, §6, §7, §8

Sequence of α (avr-14b) GluClRs (O46124 entry or part of it): as above

| SMILES | logP (Lipophilicity (logP)) | efficacy (maximal current normalised to saturating glutamate) compared to IVM (α (avr-14b) GluClRs; 30 nM, normalised to 5 mM glutamate) | net membrane partitioning time constant ([1]; bdpy data subtracted from IVM-bdpy data) | time to plateau of membrane partitioning ([1]; subtraction plot (IVM-bdpy minus bdpy)) | efficacy (maximal current normalised to saturating glutamate) compared to IVM (αβ (1:50) GluClRs; 30 nM, normalised to 5 mM glutamate, αβ 1:50) | differential efficacy between α and αβ (1:50) GluClRs (αβ (1:50) GluClRs; 30 nM, α versus αβ (1:50)) | maximal current (β GluClRs [2]) | intra-activation open probability (PO) (β GluClRs [3]; 2 μM glutamate) | mean active period duration (β GluClRs [3]; 2 μM glutamate, −70 mV) | intra-activation open probability (PO) (β GluClRs [3]; 3 mM glutamate) | mean active period duration (β GluClRs [3]; 3 mM glutamate) | maximal current (αβ (1:1) GluClRs [4]) | maximal current (α (avr-14b) GluClRs; glutamate-gated current, oocytes) | intra-activation open probability (PO) (αβ (1:1) GluClRs [5]; 2 μM glutamate) | mean active period duration (αβ (1:1) GluClRs [5]; 2 μM glutamate, both stoichiometries pooled) | intra-activation open probability (PO) (αβ (1:1) GluClRs [5]; 3 mM glutamate) | mean active period duration (αβ (1:1) GluClRs [5]; 3 mM glutamate, pooled) | maximal current (αβ (1:50) GluClRs; glutamate-gated current, oocytes, 1:50) |
| --- | --- | --- | --- | --- | --- | --- | --- | --- | --- | --- | --- | --- | --- | --- | --- | --- | --- | --- |
| CC[C@H](C)[C@H]1O[C@]2(CC[C@@H]1C)C[C@@H]1C[C@@H](C/C=C(\C)[C@@H](O)[C@@H](C)/C=C/C=C3\CO[C@@H]4[C@H](O)C(C)=C[C@@H](C(=O)O1)[C@]34O)O2 [IVM-1] | 5.1 | significantly less efficacious than IVM | 6.0 min | 18 to 20 min | preservation of efficacy | retained differential efficacy | – | – | – | – | – | – | – | – | – | – | – | – |
| N[C@@H](CCC(=O)O)C(=O)O [Glutamate, L-glutamate] | – | – | – | – | – | – | 1.9 ± 0.3 μA | 0.63 ± 0.07 | 7.5 ± 1.8 ms | 0.70 ± 0.11 | 164 ± 31 ms | 2.0 ± 0.4 μA | 3.7 ± 0.8 μA | 0.54 ± 0.06 | 40 ± 10 ms | 0.83 ± 0.03 | 146 ± 15 ms | 2.2 ± 0.4 μA |
